According to article PMC11369081, “Molecular mechanism of prolactin-releasing peptide recognition and signaling via its G protein-coupled receptor” (Cell Discovery, 2024):
Peptide text beside a SMILES is read from it.

Columns and labels:
Type in all cases: cell-based
PrRPR T233A [1] = molecular target: T1, PrRPR T233A (Homo sapiens, UniProt P49683, T233A); assay: BRET2 Gq dissociation, T233A; details: T233A (5.46), Gq-coupling, AD293 cells; mean ± S.E.M., n = 3; P <0.0001 vs WT; read-out: BRET2 pEC50 (converted)
T1 construct: Flag; expressed in transfected cells; host or cells: AD293 cells
Experimental: (§1) AD293 cells (Agilent) were propagated in Dulbecco’s Modified Eagle Medium (DMEM, Thermo Fisher Scientific), enriched with 10% fetal bovine serum (FBS, Thermo Fisher Scientific), and maintained at 37 °C in a 5% CO2 environment. Cells were then seeded in 6-well dishes at a density of 130,000–150,000 cells per mL and allowed to incubate overnight. On the next day, cells were transfected with plasmids at a 1:1:1:1 ratio for receptor:Gα-RLuc8:Gβ:Gγ-GFP2[52]. PEI MAX 40 K (BIOHUB) was utilized to form complex with the plasmids at a ratio of 3 µL PEI per µg of plasmids, in OptiMEM (Gibco-Thermo Fisher Scientific) at a concentration of 10 ng plasmids per µL OptiMEM. After 24 h of incubation, the culture was harvested by centrifugation with PBS. The cell suspension was then allocated into a white 384-well plate at a volume of 30 µL per well, followed by the addition of 10 µL of freshly prepared 50 µM coelenterazine 400a (Yeasen). […] Plates were subsequently read in a BioTek Synergy H1 microplate reader (BioTek) equipped with 395 nm (RLuc8-coelenterazine 400a) and 510 nm (GFP2) emission filters. BRET2 ratios were calculated as the ratio of the GFP2 emission to RLuc8 emission. […]
(§2) Supplementary Fig. S4 | Effects of mutations in the ligand-binding pocket and G protein intereface of Gq coupled PrRPR by BRET2 assay. […] BRET2 assay signals were measured after stimulation with PrRP20. […]

PrRPR N298A = molecular target: T2, PrRPR N298A (Homo sapiens, UniProt P49683, N298A); assay: BRET2 Gi dissociation, N298A; details: N298A (6.55), Gi-coupling, AD293 cells; mean ± S.E.M., n = 3; P 0.0022 vs WT; read-out: BRET2 pEC50 (converted)
T2 construct: Flag; expressed in transfected cells; host or cells: AD293 cells
Experimental: (§3) AD293 cells (Agilent) were propagated in Dulbecco’s Modified Eagle Medium (DMEM, Thermo Fisher Scientific), enriched with 10% fetal bovine serum (FBS, Thermo Fisher Scientific), and maintained at 37 °C in a 5% CO2 environment. Cells were then seeded in 6-well dishes at a density of 130,000–150,000 cells per mL and allowed to incubate overnight. On the next day, cells were transfected with plasmids at a 1:1:1:1 ratio for receptor:Gα-RLuc8:Gβ:Gγ-GFP2[52]. PEI MAX 40 K (BIOHUB) was utilized to form complex with the plasmids at a ratio of 3 µL PEI per µg of plasmids, in OptiMEM (Gibco-Thermo Fisher Scientific) at a concentration of 10 ng plasmids per µL OptiMEM. After 24 h of incubation, the culture was harvested by centrifugation with PBS. The cell suspension was then allocated into a white 384-well plate at a volume of 30 µL per well, followed by the addition of 10 µL of freshly prepared 50 µM coelenterazine 400a (Yeasen). Following a 15-min equilibration period, cells were treated with 10 µL of ligand for an additional 5 min. Plates were subsequently read in a BioTek Synergy H1 microplate reader (BioTek) equipped with 395 nm (RLuc8-coelenterazine 400a) and 510 nm (GFP2) emission filters. BRET2 ratios were calculated as the ratio of the GFP2 emission to RLuc8 emission. Data were normalized to the baseline response of the ligand. […]

PrRPR E212A = molecular target: T3, PrRPR E212A (Homo sapiens, UniProt P49683, E212A); assay: BRET2 Gq dissociation, E212A; details: E212A (45.51), Gq-coupling, AD293 cells; mean ± S.E.M., n = 3; P <0.0001 vs WT; read-out: BRET2 pEC50 (converted)
T3 construct: expressed in transfected cells; host or cells: AD293 cells
Experimental: as §1, §2

PrRPR T233A [2] = molecular target: T1, PrRPR T233A; assay: BRET2 Gi dissociation, T233A; details: T233A (5.46), Gi-coupling, AD293 cells; mean ± S.E.M., n = 3; P <0.0001 vs WT; read-out: BRET2 pEC50 (converted)
Experimental: as §3

PrRPR D302A = molecular target: T4, PrRPR D302A (Homo sapiens, UniProt P49683, D302A); assay: BRET2 Gi dissociation, D302A; details: D302A (6.59), Gi-coupling, AD293 cells; mean ± S.E.M., n = 3; P <0.0001 vs WT; read-out: BRET2 pEC50 (converted)
T4 construct: Flag; expressed in transfected cells; host or cells: AD293 cells
Experimental: as §3

PrRPR E213A = molecular target: T5, PrRPR E213A (Homo sapiens, UniProt P49683, E213A); assay: BRET2 Gq dissociation, E213A; details: E213A (45.52), Gq-coupling, AD293 cells; mean ± S.E.M., n = 3; P <0.0001 vs WT; read-out: BRET2 pEC50 (converted)
T5 construct: expressed in transfected cells; host or cells: AD293 cells
Experimental: as §1, §2

PrRPR Q141A = molecular target: T6, PrRPR Q141A (Homo sapiens, UniProt P49683, Q141A); assay: BRET2 Gq dissociation, Q141A; details: Q141A (3.32), Gq-coupling, AD293 cells; mean ± S.E.M., n = 3; P 0.0059 vs WT; read-out: BRET2 pEC50 (converted)
T6 construct: expressed in transfected cells; host or cells: AD293 cells
Experimental: as §1, §2

PrRPR F313A = molecular target: T7, PrRPR F313A (Homo sapiens, UniProt P49683, F313A); assay: BRET2 Gq dissociation, F313A; details: F313A (7.31), Gq-coupling, AD293 cells; mean ± S.E.M., n = 3; P 0.0012 vs WT; read-out: BRET2 pEC50 (converted)
T7 construct: Flag; expressed in transfected cells; host or cells: AD293 cells
Experimental: as §1, §2

PrRPR W127A = molecular target: T8, PrRPR W127A (Homo sapiens, UniProt P49683, W127A); assay: BRET2 Gq dissociation, W127A; details: W127A (23.50), Gq-coupling, AD293 cells; mean ± S.E.M., n = 3; P <0.0001 vs WT; read-out: BRET2 pEC50 (converted)
T8 construct: expressed in transfected cells; host or cells: AD293 cells
Experimental: as §1, §2

PrRPR L203A = molecular target: T9, PrRPR L203A (Homo sapiens, UniProt P49683, L203A); assay: BRET2 Gq dissociation, L203A; details: L203A (ECL2), Gq-coupling, AD293 cells; mean ± S.E.M., n = 3; P 0.0021 vs WT; read-out: BRET2 pEC50 (converted)
T9 construct: expressed in transfected cells; host or cells: AD293 cells
Experimental: as §1, §2

PrRPR L210A = molecular target: T10, PrRPR L210A (Homo sapiens, UniProt P49683, L210A); assay: BRET2 Gq dissociation, L210A; details: L210A (ECL2), Gq-coupling, AD293 cells; mean ± S.E.M., n = 3; P <0.0001 vs WT; read-out: BRET2 pEC50 (converted)
T10 construct: expressed in transfected cells; host or cells: AD293 cells
Experimental: as §1, §2

PrRPR H295A = molecular target: T11, PrRPR H295A (Homo sapiens, UniProt P49683, H295A); assay: BRET2 Gq dissociation, H295A; details: H295A (6.52), Gq-coupling, AD293 cells; mean ± S.E.M., n = 3; P <0.0001 vs WT; read-out: BRET2 pEC50 (converted)
T11 construct: Flag; expressed in transfected cells; host or cells: AD293 cells
Experimental: as §1, §2

T1 sequence (P49683 whole entry T233A): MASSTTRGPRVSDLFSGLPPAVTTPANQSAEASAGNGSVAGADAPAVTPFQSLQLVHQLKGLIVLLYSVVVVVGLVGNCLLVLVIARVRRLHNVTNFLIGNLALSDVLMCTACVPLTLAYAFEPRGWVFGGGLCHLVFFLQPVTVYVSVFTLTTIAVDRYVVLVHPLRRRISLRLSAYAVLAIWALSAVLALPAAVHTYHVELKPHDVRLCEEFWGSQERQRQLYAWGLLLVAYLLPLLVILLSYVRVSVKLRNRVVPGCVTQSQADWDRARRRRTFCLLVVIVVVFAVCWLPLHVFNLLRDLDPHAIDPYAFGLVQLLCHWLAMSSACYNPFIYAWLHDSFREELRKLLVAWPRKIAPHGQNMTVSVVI
T11 sequence (P49683 whole entry H295A): as the sequence (P49683 whole entry T233A) above, with A233T, H295A counted along it
T2 sequence (P49683 whole entry N298A): as the sequence (P49683 whole entry T233A) above, with A233T, N298A counted along it
T9 sequence (P49683 whole entry L203A): as the sequence (P49683 whole entry T233A) above, with L203A, A233T counted along it
T8 sequence (P49683 whole entry W127A): as the sequence (P49683 whole entry T233A) above, with W127A, A233T counted along it
T4 sequence (P49683 whole entry D302A): as the sequence (P49683 whole entry T233A) above, with A233T, D302A counted along it
T5 sequence (P49683 whole entry E213A): as the sequence (P49683 whole entry T233A) above, with E213A, A233T counted along it
T7 sequence (P49683 whole entry F313A): as the sequence (P49683 whole entry T233A) above, with A233T, F313A counted along it
T10 sequence (P49683 whole entry L210A): as the sequence (P49683 whole entry T233A) above, with L210A, A233T counted along it
T6 sequence (P49683 whole entry Q141A): as the sequence (P49683 whole entry T233A) above, with Q141A, A233T counted along it
T3 sequence (P49683 whole entry E212A): as the sequence (P49683 whole entry T233A) above, with E212A, A233T counted along it

With `CC[C@H](C)[C@H](NC(=O)CNC(=O)[C@H](CCCNC(=N)N)NC(=O)[C@H](CO)NC(=O)[C@H](C)NC(=O)[C@H](Cc1ccc(O)cc1)NC(=O)[C@H](Cc1c[nH]c2ccccc12)NC(=O)[C@H](C)NC(=O)[C@@H]1CCCN1C(=O)[C@H](CC(N)=O)NC(=O)[C@@H](NC(=O)[C@H](CC(=O)O)NC(=O)[C@@H]1CCCN1C(=O)[C@@H](N)[C@@H](C)O)[C@@H](C)CC)C(=O)N[C@@H](CCCNC(=N)N)C(=O)N1CCC[C@H]1C(=O)N[C@H](C(=O)NCC(=O)N[C@@H](CCCNC(=N)N)C(=O)N[C@@H](Cc1ccccc1)C(N)=O)C(C)C` [PrRP20] (H-TPDINPAWYASRGIRPVGRF-NH2) the EC50 (PrRPR T233A [1]) was 5.75 nM, the EC50 (PrRPR N298A) was 6.31 nM and the EC50 (PrRPR E212A) was 28.8 nM. It also gave an EC50 (PrRPR T233A [2]) of 18.6 nM, an EC50 (PrRPR D302A) of 1120 nM and an EC50 (PrRPR E213A) of 282 nM. It also gave an EC50 (PrRPR Q141A) of 3.02 nM, an EC50 (PrRPR F313A) of 3.39 nM and an EC50 (PrRPR W127A) of 240 nM. For the same molecule, the EC50 (PrRPR L203A) was 3.09 nM, the EC50 (PrRPR L210A) was 7.08 nM and the EC50 (PrRPR H295A) was 4.79 nM.
